Measured values taken from patent US20260262643A1, “HERBICIDAL BENZOXAZINES” (FMC CORPORATION, priority 2022, published 2026).

Experiments:
barnyardgrass [1] = assay: Test C preemergence; assay type: in vivo, Echinochloa crusgalli; details: 0 to 100 scale (0 no effect, 100 complete control)
In short: (§1)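 Visual injury ratings on a 0–100 scale (100 = complete control) were made against untreated controls 10 days after treatment in the greenhouse. Compounds, formulated with surfactant in non-phytotoxic solvent, were sprayed on soil preemergence or onto one- to two-leaf plants 2–10 cm tall postemergence.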

blackgrass [2] = assay: Test C preemergence; assay type: in vivo, Alopecurus myosuroides; details: 0 to 100 scale (0 no effect, 100 complete control)
In short: as §1

corn [3] = assay: Test C preemergence; assay type: in vivo, Zea mays; details: 0 to 100 scale (0 no effect, 100 complete control)
In short: as §1

green foxtail [4] = assay: Test C preemergence; assay type: in vivo, Setaria viridis; details: 0 to 100 scale (0 no effect, 100 complete control)
In short: as §1

kochia [5] = assay: Test C preemergence; assay type: in vivo, Bassia scoparia; details: 0 to 100 scale (0 no effect, 100 complete control)
In short: as §1

oat, wild [6] = assay: Test C preemergence; assay type: in vivo, Avena fatua; details: 0 to 100 scale (0 no effect, 100 complete control)
In short: as §1

pigweed, palmer [7] = assay: Test C preemergence; assay type: in vivo, Amaranthus palmeri; details: 0 to 100 scale (0 no effect, 100 complete control)
In short: as §1

ragweed [8] = assay: Test C preemergence; assay type: in vivo, Ambrosia artemisiifolia; details: 0 to 100 scale (0 no effect, 100 complete control)
In short: as §1

ryegrass, Italian [9] = assay: Test C preemergence; assay type: in vivo, Lolium multiflorum; details: 0 to 100 scale (0 no effect, 100 complete control)
In short: as §1

soybean [10] = assay: Test C preemergence; assay type: in vivo, Glycine max; details: 0 to 100 scale (0 no effect, 100 complete control)
In short: as §1

wheat [11] = assay: Test C preemergence; assay type: in vivo, Triticum aestivum; details: 0 to 100 scale (0 no effect, 100 complete control)
In short: as §1

barnyardgrass [12] = assay: Test C postemergence; assay type: in vivo, Echinochloa crusgalli; details: 10 days
In short: as §1

blackgrass [13] = assay: Test C postemergence; assay type: in vivo, Alopecurus myosuroides; details: 10 days
In short: as §1

corn [14] = assay: Test C postemergence; assay type: in vivo, Zea mays; details: 10 days
In short: as §1

green foxtail [15] = assay: Test C postemergence; assay type: in vivo, Setaria viridis; details: 10 days
In short: as §1

kochia [16] = assay: Test C postemergence; assay type: in vivo, Bassia scoparia; details: 10 days
In short: as §1

oat, wild [17] = assay: Test C postemergence; assay type: in vivo, Avena fatua; details: 10 days
In short: as §1

pigweed, palmer [18] = assay: Test C postemergence; assay type: in vivo, Amaranthus palmeri; details: 10 days
In short: as §1

ragweed [19] = assay: Test C postemergence; assay type: in vivo, Ambrosia artemisiifolia; details: 10 days
In short: as §1

ryegrass, Italian [20] = assay: Test C postemergence; assay type: in vivo, Lolium multiflorum; details: 10 days
In short: as §1

soybean [21] = assay: Test C postemergence; assay type: in vivo, Glycine max; details: 10 days
In short: as §1

wheat [22] = assay: Test C postemergence; assay type: in vivo, Triticum aestivum; details: 10 days
In short: as §1

horseweed = assay: Test C postemergence; assay type: in vivo, Erigeron canadensis; details: 10 days
In short: as §1

barnyardgrass [23] = assay: Test D flooded paddy test; assay type: in vivo, Echinochloa crus-galli; details: 250 g ai/ha, applied to paddy water, visual rating after 13 to 14 days, scale 0 to 100 (0 no effect, 100 complete control)
In short: (§2)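 Rating scale 0–100 (0 no effect, 100 complete control), visual, versus controls. Readout at 13–14 days after in-water application to 2-leaf plants in pots flooded 3 cm deep.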

ducksalad = assay: Test D flooded paddy test; assay type: in vivo, Heteranthera limosa; details: 250 g ai/ha, applied to paddy water, visual rating after 13 to 14 days, scale 0 to 100 (0 no effect, 100 complete control)
In short: as §2

rice = assay: Test D flooded paddy test; assay type: in vivo, Oryza sativa; details: 250 g ai/ha, applied to paddy water, visual rating after 13 to 14 days, scale 0 to 100 (0 no effect, 100 complete control)
In short: as §2

sedge, umbrella = assay: Test D flooded paddy test; assay type: in vivo, Cyperus difformis; details: 250 g ai/ha, applied to paddy water, visual rating after 13 to 14 days, scale 0 to 100 (0 no effect, 100 complete control)
In short: as §2

[24] = Preemergence, 500 g ai/ha, visual rating after 10 days
[25] = Test C, preemergence, 125 g ai/ha
[26] = 125 g ai/ha, postemergence, 0 to 100 scale, 0 no effect, 100 complete control
[27] = Postemergence, 500 g ai/ha, visual 0 to 100 scale (0 no effect, 100 complete control)

COc1cc(C(=O)N2C[C@H](C)Oc3c(Cl)cccc32)cc(-n2cnc(C(C)C)n2)c1 [Compound 212]
0: Ragweed plant response rating (ragweed [8]; [25]) | Plant response rating, Horseweed (horseweed; [26])
80: Barnyardgrass plant response rating (barnyardgrass [1]; [25]) | Plant response rating, Foxtail, Green (green foxtail [15]; [26]) | Plant response rating, Kochia (kochia [16]; [26]) | Plant response rating, Oat, Wild (oat, wild [17]; [27]) | Plant response rating, Wheat (wheat [22]; [27])
95: Plant response rating, Ducksalad (Flood) (ducksalad)
25: Plant response rating, Barnyardgrass (Flood) (barnyardgrass [23])
50: Plant response rating, Ragweed (ragweed [8]; [24]) | Plant response rating, Barnyardgrass (barnyardgrass [12]; [27]) | Plant response rating, Blackgrass (blackgrass [13]; [26]) | Plant response rating, Ryegrass, Italian (ryegrass, Italian [20]; [26]) | Plant response rating, Horseweed (horseweed; [27])
98: Plant response rating, Sedge, Umbrella (Flood) (sedge, umbrella)
70: Plant response rating, Corn (corn [3]; [24]) | Oat, Wild plant response rating (oat, wild [6]; [25]) | Plant response rating, Ragweed (ragweed [19]; [27]) | Plant response rating, Ryegrass, Italian (ryegrass, Italian [20]; [27])
30: Plant response rating, Wheat (wheat [11]; [24]) | Plant response rating, Barnyardgrass (barnyardgrass [12]; [26])
20: Corn plant response rating (corn [3]; [25]) | Plant response rating, Corn (corn [14]; [26]) | Plant response rating, Ragweed (ragweed [19]; [26]) | Plant response rating, Wheat (wheat [22]; [26])
40: Wheat plant response rating (wheat [11]; [25]) | Plant response rating, Oat, Wild (oat, wild [17]; [26]) | Plant response rating, Rice (Flood) (rice)
90: Plant response rating, Blackgrass (blackgrass [2]; [24]) | Plant response rating, Kochia (kochia [5]; [24]) | Kochia plant response rating (kochia [5]; [25]) | Plant response rating, Oat, Wild (oat, wild [6]; [24]) | Ryegrass, Italian plant response rating (ryegrass, Italian [9]; [25]) | Soybean plant response rating (soybean [10]; [25]) | Plant response rating, Corn (corn [14]; [27]) | Plant response rating, Foxtail, Green (green foxtail [15]; [27]) | Plant response rating, Kochia (kochia [16]; [27]) | Plant response rating, Pigweed, Palmer (pigweed, palmer [18]; [26]) | Plant response rating, Pigweed, Palmer (pigweed, palmer [18]; [27])
60: Blackgrass plant response rating (blackgrass [2]; [25])
100: Plant response rating, Barnyardgrass (barnyardgrass [1]; [24]) | Plant response rating, Foxtail, Green (green foxtail [4]; [24]) | Foxtail, Green plant response rating (green foxtail [4]; [25]) | Plant response rating, Pigweed, Palmer (pigweed, palmer [7]; [24]) | Pigweed, Palmer plant response rating (pigweed, palmer [7]; [25]) | Plant response rating, Ryegrass, Italian (ryegrass, Italian [9]; [24]) | Plant response rating, Soybean (soybean [10]; [24]) | Plant response rating, Blackgrass (blackgrass [13]; [27]) | Plant response rating, Soybean (soybean [21]; [26]) | Plant response rating, Soybean (soybean [21]; [27])
